Where two headings read alike, the source gives them in different places. Marks after values point to notes of the source that are not given here. Values belong to the molecule of their own block, whether it stands above or below them.
Tests used:
[1] = tested on: MAGI-CCR5 cells; experiment: MAGI-CCR5 parallel cytotoxicity testing; type: cell-based; conditions: for MAGI-CCR5 TC50: uninfected MAGI-CCR5 cells, 48 h, MTS, concentration that reduces cell viability by 50%; for TC50 (NL4-3 row) / TC50 (A17 row): MAGI-CCR5 cells; for TC50 (NL4-3 row): printed in the NL4-3 line of Tables 7 and 10; for TC50 (A17 row): printed in the A17 line of Table 10
[2] = tested on: PBMCs; experiment: PBMC cytotoxicity; type: cell-based, human; conditions: six days, MTS, concentration that reduces cell viability by 50%
[3] = tested on: HIV-1Ba-L; experiment: MAGI-CCR5 antiviral assay; type: cell-based; conditions: for IC50: concentration that reduces viral replication by 50%; for IC90: read-out: MAGI-CCR5 IC90, concentration that reduces viral replication by 90%
[4] = Parallel artificial membrane permeation assay; conditions: for Papp at 100 μM: PAMPA, pH 7.2
[5] = Plasma stability in vitro assay; type: in vitro ADME; conditions: percent remaining after incubation for 60 min. at 37 °C, heparinized rat plasma
[6] = Microsomal stability in vitro assay; type: in vitro ADME; conditions: percent remaining after incubation for 60 min. at 37 °C, rat liver microsomes
[7] = molecular target: HIV-1 reverse transcriptase (RT) (Human immunodeficiency virus type 1 group M subtype B, UniProt P04585); experiment: RT biochemical assay; conditions: 10 nM HIV-1 RT, 37 °C, 1 h
[8] = tested on: HIV wildtype (NL4-3); experiment: MAGI-CCR5 antiviral assay, HIV wildtype; type: cell-based; conditions: HIV wildtype (NL4-3) in MAGI-CCR5 cells; for IC50: read-out: IC50, virus NL4-3; for IC90: read-out: IC90, virus NL4-3
[9] = read-out: MAGI-CCR5 IC50, HIV-1Ba-L in MAGI-CCR5 cells, 48 h
[10] = HIV-1Ba-L in MAGI-CCR5 cells, 48 h
[11] = Human immunodeficiency virus 1, MAGI-CCR5, 48 h, read-out: MAGI-CCR5 IC50, HIV-1Ba-L in MAGI-CCR5 cells, 48 h

Molecule: 4-(2-(6-Methyl-2-oxo-4-(quinolin-4-yl)-1,2,3,4-tetrahydropyrimidin-5-yl)thiazol-4-yl)benzonitrile [1ab]
- MAGI-CCR5 TC50 [1]: >100.00 µM
- PBMC TC50 [2]: >100.00 µM
- IC50 [3, 9]: 1.5 ± 0.3 µM
- IC90 [3, 10]: 12.7 ± 3.6 µM

- Papp at 100 μM [4]: 0.0145 ×10⁻⁶ cm/s
Molecule: CC1=C(c2nc(-c3ccc(C#N)cc3)cs2)C(c2cccc(O)c2)NC(=O)N1 (stereo not shown) [1i, 4-(2-(4-(3-Hydroxyphenyl)-6-methyl-2-oxo-1,2,3,4-tetrahydropyrimidin-5-yl)thiazol-4-yl)benzonitrile]
- PBMC TC50 [2]: 84 ± 8.2 µM

Molecule: COc1ccc(-c2csc(C3=C(C)NC(=O)NC3c3cccc(O)c3)n2)cc1 (stereo not shown) [1b]
- PBMC TC50 [2]: 91 ^e μM

- Papp at 100 μM [4]: 0.0151 ×10⁻⁶ cm/s
Molecule: CC1=C(c2nc(-c3ccc(C#N)cc3)cs2)C(c2ccc(Br)nc2)NC(=O)N1 (stereo not shown) [1am, 4-(2-(4-(6-Bromopyridin-3-yl)-6-methyl-2-oxo-1,2,3,4-tetrahydropyrimidin-5-yl)thiazol-4-yl)benzonitrile]
- TC50 (NL4-3 row) [1]: >100 µM

Molecule: 4-(2-(6-Methyl-2-oxo-4-(pyridin-3-yl)-1,2,3,4-tetrahydropyrimidin-5-yl)thiazol-4-yl)benzonitrile [1y]
- MAGI-CCR5 TC50 [1]: >100.00 µM
- Plasma Stability (%) [5]: 89.42 ± 2.93%
- PAMPA (LogPe) ([4]; polar brain lipid membrane, predicts BBB permeability): −7.50 ± 0.10
- PBMC TC50 [2]: >100.00 µM
- Microsomal Stability (%) [6]: 75.55 ± 7.86%
- IC50 [3, 9]: 2.9 ± 0.1 µM
- IC90 [3, 10]: > 100 µM

Molecule: COc1ccc(C2NC(=O)NC(C)=C2c2nc(-c3ccc(C#N)cc3)cs2)cc1 (stereo not shown) [1m, 4-(2-(4-(4-Methoxyphenyl)-6-methyl-2-oxo-1,2,3,4-tetrahydropyrimidin-5-yl)thiazol-4-yl)benzonitrile]
- TC50 (NL4-3 row) [1]: 5.5 ± 1.0 µM
- Papp at 100 μM [4]: 0.0776 ×10⁻⁶ cm/s
- IC50 [3, 11]: < 0.15 µM

- RT biochemical IC50 (μM) ± SD [7]: Not active
Molecule: CC1=C(c2nc(-c3ccc(C#N)cc3)cs2)[C@H](c2cccc(O)c2)NC(=O)N1 [(S)-1i]
- PBMC TC50 [2]: >100 µM

- Papp at 100 μM [4]: 0.0562 ×10⁻⁶ cm/s
Molecule: COc1ccc(C2NC(=O)NC(C)=C2c2nc(-c3ccc(C#N)cc3)cs2)cn1 (stereo not shown) [1an, 4-(2-(4-(6-Methoxypyridin-3-yl)-6-methyl-2-oxo-1,2,3,4-tetrahydropyrimidin-5-yl)thiazol-4-yl)benzonitrile]
- TC50 (NL4-3 row) [1]: >100 µM

- Papp at 100 μM [4]: 0.0398 ×10⁻⁶ cm/s
Molecule: CC1=C(c2nc(-c3ccc(C#N)cc3)cs2)C(c2ccc(Cl)nc2)NC(=O)N1 (stereo not shown) [1ai, 4-(2-(4-(6-Chloropyridin-3-yl)-6-methyl-2-oxo-1,2,3,4-tetrahydropyrimidin-5-yl)thiazol-4-yl)benzonitrile]

- IC50 [3, 9]: 1.4 ± 0.4 µM
- IC90 [3, 10]: > 100 µM
Molecule: 4-(2-(6-Methyl-2-oxo-4-(pyridin-4-yl)-1,2,3,4-tetrahydropyrimidin-5-yl)thiazol-4-yl)benzonitrile [1z]
- MAGI-CCR5 TC50 [1]: >100.00 µM
- PBMC TC50 [2]: >100.00 µM

Molecule: CC1=C(c2nc(-c3ccc(C#N)cc3)cs2)C(c2ccc(OCc3ccccc3)cc2)NC(=O)N1 (stereo not shown) [1q, 4-(2-(4-(4-(Benzyloxy)phenyl)-6-methyl-2-oxo-1,2,3,4-tetrahydropyrimidin-5-yl)thiazol-4-yl)benzonitrile]
- IC50 [3, 11]: < 0.15 µM

Molecule: 4-(2-(6-Methyl-2-oxo-4-(pyridin-2-yl)-1,2,3,4-tetrahydropyrimidin-5-yl)thiazol-4-yl)benzonitrile [1x]
- MAGI-CCR5 TC50 [1]: >100.00 µM
- PBMC TC50 [2]: >100.00 µM
- IC50 [3, 9]: 2 ± 0.5 µM
- IC90 [3, 10]: > 100 µM

Molecule: Cc1ccnc2c1NC(=O)c1cccnc1N2C1CC1 [NVP, nevirapine, reference compound]
- IC50 [8]: 0.07 ± 0.03 µM
- IC90 [8]: 0.6 ± 0.07 µM

Molecule: CC1=C(c2nc(-c3ccc(C#N)cc3)cs2)C(c2ccc(C(F)(F)F)nc2)NC(=O)N1 (stereo not shown) [1ar, 4-(2-(6-Methyl-2-oxo-4-(6-(trifluoromethyl)pyridin-3-yl)-1,2,3,4-tetrahydropyrimidin-5-yl)thiazol-4-yl)benzonitrile]
- TC50 (NL4-3 row) [1]: >100 µM

Molecule: 3-Methyl-4-(2-(6-methyl-4-(1-methyl-1H-indol-2-yl)-2-oxo-1,2,3,4-tetrahydropyrimidin-5-yl)thiazol-4-yl)benzonitrile [1at]
- TC50 (A17 row) [1]: >100 µM
- TC50 (NL4-3 row) [1]: >100 µM
- MAGI-CCR5 TC50 [1]: >100 µM
- PBMC TC50 [2]: >100 ^d μM
- IC50 [8]: 0.39 ± 0.05 µM
- IC90 [8]: 4.8 ± 0.6 µM
- IC50 [3, 9]: 0.39 ± 0.05 µM
- IC90 [3, 10]: 1.9 ± 0.3 µM

Molecule: CC1=C(c2nc(-c3ccc(C#N)cc3)cs2)C(c2cc3ccccc3n2C)NC(=O)N1 (stereo not shown) [1ad, 4-(2-(6-Methyl-4-(1-methyl-1H-indol-2-yl)-2-oxo-1,2,3,4-tetrahydropyrimidin-5-yl)thiazol-4-yl)benzonitrile]
- TC50 (A17 row) [1]: >100 µM
- TC50 (NL4-3 row) [1]: >100 µM
- Papp at 100 μM [4]: 0.0891 ×10⁻⁶ cm/s
- IC50 [3, 11]: 0.74 µM

Molecule: 4-(2-(6-Methyl-2-oxo-4-(quinolin-2-yl)-1,2,3,4-tetrahydropyrimidin-5-yl)thiazol-4-yl)benzonitrile [1aa]
- MAGI-CCR5 TC50 [1]: >100.00 µM
- PBMC TC50 [2]: 68.3 ± 22.1 µM
- IC50 [3, 9]: 3.8 ± 1 µM
- IC90 [3, 10]: 98.3 ± 1.7 µM

- Papp at 100 μM [4]: 0.0151 ×10⁻⁶ cm/s
Molecule: CC1=C(c2nc(-c3ccc(C#N)cc3)cs2)C(c2ccc(O)cc2)NC(=O)N1 (stereo not shown) [1l, 4-(2-(4-(4-Hydroxyphenyl)-6-methyl-2-oxo-1,2,3,4-tetrahydropyrimidin-5-yl)thiazol-4-yl)benzonitrile]
- TC50 (NL4-3 row) [1]: 46 ± 6.1 µM

Molecule: CC1=C(c2nc(-c3ccc(C#N)cc3)cs2)C(c2ccc(Oc3ccccc3)cc2)NC(=O)N1 (stereo not shown) [1p, 4-(2-(6-Methyl-2-oxo-4-(4-phenoxyphenyl)-1,2,3,4-tetrahydropyrimidin-5-yl)thiazol-4-yl)benzonitrile]
- IC50 [3, 11]: < 0.15 µM

Molecule: CC1=C(c2nc(-c3ccc(C#N)cc3)cs2)[C@@H](c2cccc(O)c2)NC(=O)N1 [(R)-1i]
- PBMC TC50 [2]: >100 µM

- Papp at 100 μM [4]: 0.575 ×10⁻⁶ cm/s
Molecule: CC1=C(c2nc(-c3ccc(C#N)cc3)cs2)C(c2ccc(F)nc2)NC(=O)N1 (stereo not shown) [1ae, 4-(2-(4-(6-Fluoropyridin-3-yl)-6-methyl-2-oxo-1,2,3,4-tetrahydropyrimidin-5-yl)thiazol-4-yl)benzonitrile]
- TC50 (NL4-3 row) [1]: >100 µM

Source: publication PMC6145176 (Bioorganic & medicinal chemistry, 2017)
